Reference: PMC11583597, “Brain uptake pharmacokinetics of albiglutide, dulaglutide, tirzepatide, and DA5-CH in the search for new treatments of Alzheimer’s and Parkinson’s diseases” (Tissue Barriers, 2023)

Experiments:
[1] = Octanol/buffer partition coefficient (lipid solubility); assay type: physicochemical; conditions: pH 7.5
Description: We measured the lipid solubility of the IRAs, using octanol and PB. Briefly, 1 × 10^5 counts per minute (cpm) of each ^125I/^14C-IRA were added to triplicate tubes containing equal volumes PB and octanol (Sigma-Aldrich). This solution was vigorously mixed for 1 min and centrifuged at 5500 ×g for 10 min to separate the two phases. Aliquots of 100 μl were taken in duplicate from each phase, and total radioactivity was counted in a gamma counter (Wizard2, Perkin-Elmer) or beta counter (TriCarb 3110TR, Perkin-Elmer). The ratio of the cpm in the octanol phase to the cpm in the buffer phase equates to the mean partition coefficient (Pcoeff) and indicates lipophilicity. The log value for the coefficient can be either greater than unity, indicative of a lipophilic compound, or less than unity, indicative of a hydrophilic compound.

[2] = In vivo stability of 125I/14C-IRAs in brain (acid precipitation); parameters: species or system male CD-1 mice; conditions: mouse, iv
Description: (§1) We measured the stability of the radiolabeled IRAs in brain and blood. Following anesthetization, arterial blood and whole brain were taken at two time points (10 or 60 min) after iv injection of 3 × 10^5 cpm-1×10^6 cpm of ^125I/^14C-IRA in 0.2 ml of BSA/LR. The blood samples were allowed to clot, centrifuged at 3200 ×g for 10 min, and 50 μl of the separated serum was added to 250 μl of BSA-LR. Samples were combined with equal volume 30% TCA (300 μl), mixed, and then centrifuged for 10 min at 5400 ×g. Brains were homogenized in 800 μl of BSA-LR with a bead beater for 30 sec at 4800 rpm twice. Following centrifugation at 5400 ×g for 15 min, a portion of the resulting supernatant was added to an equal volume of 30% TCA, mixed, and then centrifuged at 5400 ×g for 10 min. The radioactivity in the resulting supernatant and pellet (Sup and Pel fractions) for serum and brain was calculated separately, and the percent of radioactivity in the precipitate was calculated using the following equation:(1) %AcidPrecip=100×Pel/Sup+Pel
(§2) To correct for degradation that might have occurred during the processing, ^125I/^14C-IRA was added to non-radioactive arterial whole blood or to whole brain and processed as above. The biological samples were corrected for degradation during processing by dividing their values by those for processing control (Pcon) values and multiplying by 100. This can sometimes result in a value greater than 100%.
(§3) Immediately after counting the radioactivity, the blood and brains from the 10 min and 6 h time points were processed as described in Section 2.5 for in vivo stability. For further comparison, data from the 1 h time point were taken from the original pharmacokinetic uptake study. The ^125I-IRA brain % acid precipitation (%AP) was divided by the ^125I-IRA serum %AP at each time point to calculate the %AP B/S ratio. This value was multiplied by the B/S ratio for each ^125I-IRA to correct for degradation over the 10 min, 1 h, or 6 h time periods. Corrected AP B/S ratios were then corrected for vascular space by subtracting the ^99mTc-Alb B/S ratio within each mouse for the 10 min and 6 h time points (AP corrected delta B/S ratio). For the 1 h time point, the average ^99mTc-Alb B/S ratio (10.03 μl/g) at 10 min across all ^125I-IRAs was used for correction. The AP corrected delta B/S ratio for each ^125I-IRA was then multiplied by the %Inj/ml within each mouse to calculate the AP corrected delta %Inj/g.

[3] = In vivo stability of 125I/14C-IRAs in blood/serum (acid precipitation); parameters: species or system male CD-1 mice; conditions: mouse, iv
Description: as §1, §2, §3

[4] = human, in vivo; cited from earlier work

Q: Which “Lipid Solubility Partition Coefficient” value [1] does the source give for `CC[C@H](C)[C@H](NC(=O)[C@H](CC(C)C)NC(=O)[C@H](Cc1c[nH]c2ccccc12)NC(=O)[C@H](CCC(N)=O)NC(=O)[C@@H](NC(=O)[C@H](Cc1ccccc1)NC(=O)[C@H](C)NC(=O)[C@H](CCCCNC(=O)COCCOCCNC(=O)COCCOCCNC(=O)CC[C@H](NC(=O)CCCCCCCCCCCCCCCCCCC(=O)O)C(=O)O)NC(=O)[C@H](CCC(N)=O)NC(=O)[C@H](C)NC(=O)[C@@H](NC(=O)[C@H](CCCCN)NC(=O)[C@H](CC(=O)O)NC(=O)[C@H](CC(C)C)NC(=O)C(C)(C)NC(=O)[C@@H](NC(=O)[C@H](CO)NC(=O)[C@H](Cc1ccc(O)cc1)NC(=O)[C@H](CC(=O)O)NC(=O)[C@H](CO)NC(=O)[C@@H](NC(=O)[C@H](Cc1ccccc1)NC(=O)[C@@H](NC(=O)CNC(=O)[C@H](CCC(=O)O)NC(=O)C(C)(C)NC(=O)[C@@H](N)Cc1ccc(O)cc1)[C@@H](C)O)[C@@H](C)O)[C@@H](C)CC)[C@@H](C)CC)C(C)C)C(=O)N[C@@H](C)C(=O)NCC(=O)NCC(=O)N1CCC[C@H]1C(=O)N[C@@H](CO)C(=O)N[C@@H](CO)C(=O)NCC(=O)N[C@@H](C)C(=O)N1CCC[C@H]1C(=O)N1CCC[C@H]1C(=O)N1CCC[C@H]1C(=O)N[C@@H](CO)C(N)=O` [Tirzepatide] here?
A: The value was 0.1318 ± 0.0126.

Q: What about the “Log Partition Coefficient (Log P)” value [1] of the same compound?
A: Its value is -0.884 ± 0.0405.

Q: What about the “Percentage of labeled IRA intact, Whole Brain, 10 min” value [2] of the same compound?
A: Its value is 100.7 ± 0.0%.

Q: And the “Percentage of labeled IRA intact, Whole Brain, 60 min” value [2]?
A: Its value is 99.73 ± 0.6%.

Q: What about the “Percentage of labeled IRA intact, Serum, 10 min” value [3] of the same compound?
A: Its value is 100.5 ± 0.0%.

Q: What about the “Percentage of labeled IRA intact, Serum, 60 min” value [3] of the same compound?
A: The value was 99.65 ± 0.1%.

Q: And the “half-lives in human serum” value [4]?
A: The value was 111 to 124 h.
